In brackets after ≈: the same amount, converted by molar mass. Where two headings read alike, the source gives them in different places.
What was measured:
[1] = target: T1, E. coli DnaE (DNA polymerase III α-subunit from Escherichia coli) (Escherichia coli, UniProt P10443); assay: In vitro DnaE single enzyme assay (E. coli); format: biochemical
T1 construct: EcDnaE (E. coli DnaE residues 1-1160); 6xHis (N); made in house; host or cells: E. coli BL21(DE3)
Outline: (§1)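 His-tagged E. coli DnaE (residues 1-1160, 0.8 μg/ml) or S. aureus DnaE (residues 1-1065, 0.05 μg/ml) incubated 30 min at 30° C. with activated calf thymus DNA, 0.025 mM dATP/dGTP/dCTP and 0.011 mM 3H-dTTP in Tris pH 7.5/Mg acetate. TCA-precipitated labelled DNA counted.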

[2] = target: T2, S. aureus DnaE (DNA polymerase III α-subunit homolog from Staphylococcus aureus) (Staphylococcus aureus, UniProt Q5HF71); assay: biochemical; format: biochemical
T2 construct: SaDnaE (S. aureus DnaE residues 1-1065); 6xHis (N); made in house; host or cells: E. coli BL21-AI
T2 sequence (Q5HF71 1-1065): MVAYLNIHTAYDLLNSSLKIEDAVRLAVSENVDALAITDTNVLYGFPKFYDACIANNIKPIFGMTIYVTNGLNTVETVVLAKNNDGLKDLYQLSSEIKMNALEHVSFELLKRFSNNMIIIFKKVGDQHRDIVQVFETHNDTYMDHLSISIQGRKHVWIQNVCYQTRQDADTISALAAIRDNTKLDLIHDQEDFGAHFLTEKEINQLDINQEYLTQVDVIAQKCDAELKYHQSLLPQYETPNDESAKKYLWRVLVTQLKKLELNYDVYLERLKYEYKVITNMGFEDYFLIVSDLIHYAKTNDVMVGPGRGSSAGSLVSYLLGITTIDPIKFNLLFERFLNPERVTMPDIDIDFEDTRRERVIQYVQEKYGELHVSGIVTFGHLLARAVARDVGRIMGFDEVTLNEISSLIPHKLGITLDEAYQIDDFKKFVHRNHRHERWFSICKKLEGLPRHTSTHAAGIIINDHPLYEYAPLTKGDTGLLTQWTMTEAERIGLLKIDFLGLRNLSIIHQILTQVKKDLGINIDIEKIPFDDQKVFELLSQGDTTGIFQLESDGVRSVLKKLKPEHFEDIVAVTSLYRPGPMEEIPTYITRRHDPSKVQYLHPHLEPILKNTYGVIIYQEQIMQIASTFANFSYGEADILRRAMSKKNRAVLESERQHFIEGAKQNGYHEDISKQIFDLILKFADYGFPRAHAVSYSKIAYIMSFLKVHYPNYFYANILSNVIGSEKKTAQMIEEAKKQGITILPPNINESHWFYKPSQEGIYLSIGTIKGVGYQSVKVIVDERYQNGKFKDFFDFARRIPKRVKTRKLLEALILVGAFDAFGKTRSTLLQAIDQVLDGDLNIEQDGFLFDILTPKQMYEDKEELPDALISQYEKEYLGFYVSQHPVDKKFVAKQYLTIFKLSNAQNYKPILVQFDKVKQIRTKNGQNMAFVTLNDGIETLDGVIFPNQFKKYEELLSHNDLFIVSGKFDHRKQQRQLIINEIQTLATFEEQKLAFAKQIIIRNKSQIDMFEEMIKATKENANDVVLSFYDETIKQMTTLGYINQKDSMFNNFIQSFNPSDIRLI
Outline: as §1

[3] = test system: Escherichia coli MB5747 (LS 883, tolC); assay: microbe, parasite or virus in culture; format: cell-based; conditions: Escherichia coli, read-out: E. coli LS883 tolC (MIC), MHII broth; * = some reduction of growth versus control at […]
[4] = test system: Pseudomonas aeruginosa MB5890 (CB1101, efflux-deleted); assay: microbe, parasite or virus in culture; format: cell-based; conditions: Pseudomonas aeruginosa, read-out: P. aeruginosa MB5890 efflux-del (MIC), MHII broth; * = some reduction of growth versus control at […]
[5] = test system: Staphylococcus aureus MB6266 (MRSA COL); assay: Nargenicin antibacterial assay (MIC), S. aureus; format: cell-based; conditions: Staphylococcus aureus, MRSA, read-out: S. aureus COL (MIC), MHII broth + 50% human serum; * = some reduction of growth versus control at […]
[6] = test system: Streptococcus pneumoniae MB6357 (CL 2883); assay: Nargenicin antibacterial assay (MIC), S. pneumoniae; format: cell-based; conditions: Streptococcus pneumoniae, read-out: S. pneumoniae MB2883 (MIC), Isosensitest broth; * = some reduction of growth versus control at […]
[7] = read-out: S. aureus DnaE IC50 (converted)
[8] = read-out: E. coli DnaE IC50 (converted)

T1 sequence (P10443 whole entry, the tested form may be a part): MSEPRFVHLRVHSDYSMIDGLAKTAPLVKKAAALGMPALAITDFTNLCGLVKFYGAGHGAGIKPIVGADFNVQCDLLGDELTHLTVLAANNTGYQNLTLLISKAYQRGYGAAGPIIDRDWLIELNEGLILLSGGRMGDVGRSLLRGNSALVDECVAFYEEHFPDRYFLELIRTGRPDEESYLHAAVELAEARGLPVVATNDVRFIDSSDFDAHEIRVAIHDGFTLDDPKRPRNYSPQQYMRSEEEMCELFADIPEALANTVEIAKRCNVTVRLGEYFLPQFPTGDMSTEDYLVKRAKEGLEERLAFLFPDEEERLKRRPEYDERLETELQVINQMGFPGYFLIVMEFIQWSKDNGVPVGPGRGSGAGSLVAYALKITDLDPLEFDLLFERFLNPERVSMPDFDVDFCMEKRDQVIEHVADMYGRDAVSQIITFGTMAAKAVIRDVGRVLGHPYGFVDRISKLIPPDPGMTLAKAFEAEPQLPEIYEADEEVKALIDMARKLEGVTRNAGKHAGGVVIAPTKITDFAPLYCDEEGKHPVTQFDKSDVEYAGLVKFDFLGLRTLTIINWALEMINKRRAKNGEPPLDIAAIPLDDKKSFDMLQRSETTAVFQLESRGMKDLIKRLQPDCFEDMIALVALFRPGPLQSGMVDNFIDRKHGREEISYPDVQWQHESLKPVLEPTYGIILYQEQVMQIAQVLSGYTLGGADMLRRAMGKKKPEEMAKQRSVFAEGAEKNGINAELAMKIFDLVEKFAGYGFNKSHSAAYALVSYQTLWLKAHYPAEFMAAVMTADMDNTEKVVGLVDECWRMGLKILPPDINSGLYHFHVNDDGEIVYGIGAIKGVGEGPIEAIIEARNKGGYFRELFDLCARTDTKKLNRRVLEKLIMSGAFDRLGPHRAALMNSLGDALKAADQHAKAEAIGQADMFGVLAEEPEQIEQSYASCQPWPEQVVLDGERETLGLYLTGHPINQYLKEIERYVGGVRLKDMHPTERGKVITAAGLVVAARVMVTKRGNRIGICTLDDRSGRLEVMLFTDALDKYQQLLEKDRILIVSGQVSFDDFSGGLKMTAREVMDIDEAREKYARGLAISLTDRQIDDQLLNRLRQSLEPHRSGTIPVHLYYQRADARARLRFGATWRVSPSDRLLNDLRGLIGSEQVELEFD

## CO[C@H]1C[C@H]2C=C[C@H]3[C@H]4O[C@]2(/C(C)=C/[C@@H](C)[C@@H]([C@@H](C)O)OC1=O)[C@@H]3[C@H](O)C(C)[C@@H]4CO (stereo partly drawn) [Example 163, (3R,4S,7S,8aS,10aR,11R,12R,14R,14aS,14bS,E)-14-hydroxy-4-((R)-1-hydroxyethyl)-12-(hydroxymethyl)-7-methoxy-1,3,13-trimethyl-3,4,8,8a,10a,11,12,13,14,14a-decahydro-11,14b-epoxynaphtho[2,1-e]oxecin-6(7H)-one]
[1]; E. coli DnaE IC50
  IC50: > 229 µM
[2]; [7]
  IC50: 0.687 µM
[3]
  MIC: 8 µg/mL (≈ 18.3 µM)
[4]
  MIC: 8 µg/mL (≈ 18.3 µM)
[5]
  MIC: > 128 µg/mL
[6]
  MIC: > 128 µg/mL

## CO[C@H]1C[C@H]2C=CC3C4[C@H](O)[C@@H](C)[C@@H](OC(=O)c5cc(-c6cccnc6)c[nH]5)[C@@H]3O[C@]42/C(C)=C/[C@@H](C)[C@@H]([C@@H](C)O)OC1=O [Example 164, (3R,4S,7S,8aS,11R,12R,13R,14R,14bS,E)-14-hydroxy-4-((R)-1-hydroxyethyl)-7-methoxy-1,3,13-trimethyl-6-oxo-3,4,6,7,8,8a,10a,11,12,13,14,14a-dodecahydro-11,14b-epoxynaphtho[2,1-e]oxecin-12-yl 4-(pyridin-3-yl)-1H-pyrrole-2-carboxylate]
[1]; E. coli DnaE IC50
  IC50: > 169 µM
[2]; S. aureus DnaE IC50
  IC50: 10.1 µM
[3]
  MIC: 16 µg/mL (≈ 27 µM)
[4]
  MIC: > 128 µg/mL
[5]
  MIC: > 128 µg/mL
[6]
  MIC: 32 µg/mL (≈ 54 µM)

## COC(=O)/C=C/c1c[nH]c(C(=O)O[C@@H]2[C@H](C)[C@@H](O)[C@@H]3[C@H]4C=CC5C[C@H](OC)C(=O)O[C@H](C(C)O)[C@H](C)/C=C(\C)[C@]53O[C@H]42)c1 (stereo partly drawn) [Example 166]
[1]; [8]
  IC50: > 83.4 µM
[2]; S. aureus DnaE IC50
  IC50: 0.3 µM
[3]
  MIC: 64 µg/mL (≈ 107 µM)
[4]
  MIC: > 64 µg/mL
[5]
  MIC: > 64 µg/mL
[6]
  MIC: > 64 µg/mL

## CO[C@H]1C[C@H]2C=CC3C4[C@H](O)[C@@H](C)[C@@H](OC(=O)c5cc(NC(=O)c6ccccc6)c[nH]5)[C@@H]3O[C@]42/C(C)=C/[C@@H](C)[C@@H]([C@@H](C)O)OC1=O [Example 167, (3R,4S,7S,8aS,11R,12R,13R,14R,14bS,E)-14-hydroxy-4-((R)-1-hydroxyethyl)-7-methoxy-1,3,13-trimethyl-6-oxo-3,4,6,7,8,8a,10a,11,12,13,14,14a-dodecahydro-11,14b-epoxynaphtho[2,1-e]oxecin-12-yl 4-benzamido-1H-pyrrole-2-carboxylate]
[1]; [8]
  IC50: > 158 µM
[2]; S. aureus DnaE IC50
  IC50: 3.15 µM
[3]
  MIC: > 128 µg/mL
[4]
  MIC: > 128 µg/mL
[5]
  MIC: > 128 µg/mL
[6]
  MIC: > 128 µg/mL

## CO[C@H]1C[C@H]2C=CC3C4[C@H](O)[C@@H](C)[C@@H](OC(=O)c5cc(NC(C)=O)c[nH]5)[C@@H]3O[C@]42/C(C)=C/[C@@H](C)[C@@H]([C@@H](C)O)OC1=O [Example 168, (3R,4S,7S,8aS,11R,12R,13R,14R,14bS,E)-14-hydroxy-4-((R)-1-hydroxyethyl)-7-methoxy-1,3,13-trimethyl-6-oxo-3,4,6,7,8,8a,10a,11,12,13,14,14a-dodecahydro-11,14b-epoxynaphtho[2,1-e]oxecin-12-yl 4-acetamido-1H-pyrrole-2-carboxylate]
[1]; [8]
  IC50: > 87.3 µM
[2]; S. aureus DnaE IC50
  IC50: 31.4 µM
[3]
  MIC: > 128 µg/mL
[4]
  MIC: > 64 µg/mL
[5]
  MIC: > 128 µg/mL
[6]
  MIC: > 64 µg/mL

## CO[C@H]1C[C@H]2C=CC3C4[C@H](O)[C@@H](C)[C@@H](OC(=O)c5ccc[nH]5)[C@@H]3O[C@]42/C(C)=C/[C@@H](C)C([C@@H](C)O)NC1=O (stereo partly drawn) [Example 170]
[1]; [8]
  IC50: > 194 µM
[2]; S. aureus DnaE IC50
  IC50: 2.53 µM
[3]
  MIC: 128 µg/mL (≈ 249 µM)
[4]
  MIC: > 128 µg/mL
[5]
  MIC: > 128 µg/mL
[6]
  MIC: > 128 µg/mL

## CO[C@H]1C[C@H]2C=C[C@H]3[C@H]4O[C@]2(/C(C)=C/[C@@H](C)[C@@H](C(C)=O)OC1=O)[C@@H]3C(=O)[C@@H](C)[C@H]4OC(=O)c1ccc[nH]1 [Example 171]
[1]; [8]
  IC50: 176 µM
[2]; S. aureus DnaE IC50
  IC50: 6.84 µM
[3]
  MIC: > 8 µg/mL
[4]
  MIC: > 128 µg/mL
[5]
  MIC: > 8 µg/mL
[6]
  MIC: > 128 µg/mL

## CO[C@H]1C[C@H]2C=CC3C4[C@H](O)[C@@H](C)[C@@H](OC(=O)c5ccc(OC(C)=O)n5O)[C@@H]3O[C@]42/C(C)=C/[C@@H](C)[C@@H]([C@@H](C)O)OC1=O [Example 173]
[1]; [8]
  IC50: > 170 µM
[2]; S. aureus DnaE IC50
  IC50: 0.543 µM
[3]
  MIC: 8 µg/mL (≈ 13.6 µM)
[4]
  MIC: 16 µg/mL (≈ 27.1 µM)
[5]
  MIC: > 128 µg/mL
[6]
  MIC: 128 µg/mL (≈ 217 µM)

## C/C1=C\[C@@H](C)[C@@H](C(C)O)OC(=O)C(O)CC2C=C[C@H]3[C@H]4O[C@@]12[C@@H]3[C@H](O)[C@@H](C)[C@H]4OC(=O)c1ccc[nH]1 (stereo partly drawn) [Example 174]
[1]; [8]
  IC50: 21.9 µM
[2]; S. aureus DnaE IC50
  IC50: 0.0199 µM
[3]
  MIC: 8 µg/mL (≈ 15.9 µM)
[4]
  MIC: > 128 µg/mL
[5]
  MIC: 8 µg/mL
[6]
  MIC: > 128 µg/mL

## CO[C@H]1C[C@H]2C=C[C@H]3[C@H]4O[C@]2(/C(C)=C/[C@@H](C)[C@@H]([C@@H](C)O)OC1=O)[C@@H]3C(=O)C(C)[C@H]4C#N (stereo partly drawn) [Example 176, (3R,4 S ,7S ,8aS ,10aR,11R,12S ,14aR,14b S,E)-4-((R)-1-hydroxyethyl)-7-methoxy-1,3,13-trimethyl-6,14-dioxo-3,4,6,7,8,8a,10a,11,12,13,14,14a-dodecahydro-11,14b-epoxynaphtho[2,1-e]oxecine-12-carbonitrile]
[1]; E. coli DnaE IC50
  IC50: > 233 µM
[2]; [7]
  IC50: 25.6 µM
[3]
  MIC: > 128 µg/mL
[4]
  MIC: > 128 µg/mL
[5]
  MIC: > 128 µg/mL
[6]
  MIC: > 128 µg/mL

## CO[C@H]1CC2C=C[C@H]3[C@H]4O[C@]2(/C(C)=C/[C@@H](C)[C@@H](C(C)=O)OC1=O)[C@@H]3[C@H](O)[C@@H](C)[C@H]4OC(=O)c1ccc[nH]1 (stereo partly drawn) [Example 177]
[1]; [8]
  IC50: 8.76 µM
[2]; S. aureus DnaE IC50
  IC50: < 0.0117 µM
[3]
  MIC: 0.5 µg/mL (≈ 0.974 µM)
[4]
  MIC: 8 µg/mL (≈ 15.6 µM)
[5]
  MIC: 1 µg/mL
[6]
  MIC: > 128 µg/mL

## C=CC[C@@H]1C(C)[C@@H](O)[C@@H]2[C@H]3C=C[C@@H]4C[C@H](OC)C(=O)O[C@H]([C@@H](C)O)[C@H](C)/C=C(\C)[C@@]24O[C@H]31 (stereo partly drawn) [Example 179, (3R,4S,7S,8aS,10aR,11S,12R,14R,14aS,14bS,E)-12-allyl-14-hydroxy-4-((R)-1-hydroxyethyl)-7-methoxy-1,3,13-trimethyl-3,4,8,8a,10a,11,12,13,14,14a-decahydro-11,14b-epoxynaphtho[2,1-e]oxecin-6(7H)-one]
[1]; [8]
  IC50: > 112 µM
[2]; S. aureus DnaE IC50
  IC50: 29.1 µM
[3]
  MIC: 64 µg/mL (≈ 143 µM)
[4]
  MIC: > 64 µg/mL
[5]
  MIC: > 64 µg/mL
[6]
  MIC: 64 µg/mL (≈ 143 µM)

## CO[C@H]1CC2C=C[C@H]3[C@H]4O[C@]2(/C(C)=C/[C@@H](C)[C@@H](/C(C)=N\O)OC1=O)[C@@H]3[C@H](O)[C@@H](C)[C@H]4OC(=O)c1ccc[nH]1 (stereo partly drawn) [Example 180]
[1]; [8]
  IC50: 11.4 µM
[2]; S. aureus DnaE IC50
  IC50: < 0.0114 µM
[3]
  MIC: 4 µg/mL (≈ 7.57 µM)
[4]
  MIC: 64 µg/mL (≈ 121 µM)
[5]
  MIC: 4 µg/mL
[6]
  MIC: 32 µg/mL (≈ 60.5 µM)

## CO[C@H]1C[C@H]2CC(=O)[C@H]3[C@H]4O[C@]2(/C(C)=C/[C@@H](C)[C@@H]([C@@H](C)O)OC1=O)[C@@H]3[C@H](O)[C@@H](C)[C@H]4OC(=O)c1ccc[nH]1 [Example 181]
[1]; [8]
  IC50: > 188 µM
[2]; S. aureus DnaE IC50
  IC50: 0.0941 µM
[3]
  MIC: 8 µg/mL (≈ 15 µM)
[4]
  MIC: 32 µg/mL (≈ 60.2 µM)
[5]
  MIC: 64 µg/mL
[6]
  MIC: > 128 µg/mL

From patent US9944654B2, “Nargenicin compounds and uses thereof as antibacterial agents” (priority 2014, dated 2018)
